Data: patent US4478827A, “Renin inhibitors” (The General Hospital Corporation, priority 1983, dated 1984)
pKi: −log10 of the molar value. Values after ≈ are worked out from the molar mass of the structure shown. Like-named read-outs stand apart in the source and are kept apart here. Where a SMILES comes first, the peptide text is derived from it. [ ]: non-standard residue; d: D form.

How the values were obtained:
[1] = Solubility in aqueous medium; type: physicochemical
log P = type: physicochemical
[2] = Half life in vivo (loss of radioactively labeled peptide from the circulation)
Procedure: The polypeptides of this invention are characterized by solubility in an aqueous medium at physiologic pH of 100-500 μm, an inhibition constant for (Ki) of between 1-50 μm and a half-life in vivo, as measured by rate of loss of radioactively labeled peptide from the circulation, of between about 1-10 minutes, especially 5-10 minutes.

renin [3] = molecular target: T1, renin (Homo sapiens, UniProt P00797); test: biochemical
T1 sequence (P00797 67-406): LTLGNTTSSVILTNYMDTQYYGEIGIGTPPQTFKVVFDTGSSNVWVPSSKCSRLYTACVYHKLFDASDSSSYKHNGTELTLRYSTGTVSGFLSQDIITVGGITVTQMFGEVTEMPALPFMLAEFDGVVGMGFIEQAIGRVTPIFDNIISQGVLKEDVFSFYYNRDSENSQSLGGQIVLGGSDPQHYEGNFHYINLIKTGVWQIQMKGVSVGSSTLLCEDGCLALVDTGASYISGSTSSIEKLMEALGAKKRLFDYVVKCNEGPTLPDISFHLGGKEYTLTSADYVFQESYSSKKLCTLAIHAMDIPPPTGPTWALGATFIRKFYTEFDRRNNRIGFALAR
Procedure: The peptide being tested is dissolved in 0.01 N HCl and the pH adjusted to pH 7.5 to obtain high concentrations of peptide. The peptide solution is diluted further to appropriate concentrations with 0.1 M Tris HCl-albumin.
First, to determine Km, renin (0.006 Goldblatt unit/ml) is incubated for 2 hrs. at 37° with incremental concentrations of tetradecapeptide substrate varying between 3 and 108μ M in a volume of 160 μl at pH 7.5 in 0.1M Tris HCl containing 0.5% albumin. The release of angiotensin I is determined by radioimmunoassay (Haber et al, J. Clin. Endocrinol. Metab. 29, 1349 (1969)). […] Controls for cross-relatively are performed with each experiment and appropriate corrections are made when significant, (Poulsen et al, Scand. J. Clin. Lab. Invest. 31, Suppl. No. 132, 1, (1973)).
The inhibitor constant is calculated at previously described, (Poulsen et al, Scand. J. Clin. Lab. Invest. 31, suppl. No. 132, 1, (1973)), from a weighted leastsquares fit of a Lineweaver-Burk plot. […]
Angiotensin I standards and tetradecapeptide renin substrate were obtained from Peninsula (San Mateo, CA). Angiotensin I concentrations were determined with the radio immunoassay kit purchased from New England Nuclear (Boston, MA). […]
Data from the RIA was worked up using a computer program. Data were first fitted to a Lineweaver-Burke plot and from this KI was calculated.

renin [4] = molecular target: T1, renin; conditions: octapeptides with replaced Leu-Leu cleavage site, prior art; read-out: binding constants; cited from earlier work
[5] = pH 7.4, water, pH 7.40, read-out: Solubility (pH 7.40)

| solubility [1] | logP (log P) | Molecule | solubility [1, 5] | Half life in vivo [2] | pKi (renin [3]) | life in vitro and in vivo ([2]; in vitro and in vivo) | pKi (renin [4]) |
| --- | --- | --- | --- | --- | --- | --- | --- |
| 330 µM (≈ 435 µg/mL) | -1.28 | CC(C)[C@H](NC(=O)[C@H](Cc1ccccc1)NC(=O)[C@H](Cc1ccccc1)NC(=O)[C@H](Cc1c[nH]cn1)NC(=O)[C@H](Cc1ccccc1)NC(=O)[C@@H]1CCCN1C(=O)[C@H](Cc1c[nH]cn1)NC(=O)[C@@H]1CCCN1)C(=O)N[C@@H](Cc1ccc(O)cc1)C(=O)N[C@H](CCCCN)C(=O)O [D-RIP, Pro-His-Pro-Phe-His-Phe-Phe-Val-Tyr-D-Lys] (H-PHPFHFFVY[dK]-OH) | 330 µM (≈ 435 µg/mL) | 5 min | 4.53 | – | – |
| – | – | CC(C)[C@H](NC(=O)[C@H](Cc1ccccc1)NC(=O)[C@H](Cc1ccccc1)NC(=O)[C@H](Cc1cnc[nH]1)NC(=O)[C@H](Cc1ccccc1)NC(=O)[C@@H]1CCCN1C(=O)[C@H](Cc1cnc[nH]1)NC(=O)[C@@H]1CCCN1)C(=O)N[C@@H](Cc1ccc(O)cc1)C(=O)N[C@@H](CCCCN)C(=O)O [RIP, Pro-His-Pro-Pre-His-Phe-Phe-Val-Tyr-Lys] (H-PHPFHFFVYK-OH) | 840 µM (≈ 1110 µg/mL) | 3.8 min | 4.38 | relatively short life | – |
| – | – | Leu-Phe | – | – | – | – | 5.40 |
| – | – | Leu-Tyr | – | – | – | – | 4.92 |
